Drawing on ChEMBL document CHEMBL1124696, “Nucleoside peptides. 10. Synthesis and T-cell immunostimulatory properties of certain peptide derivatives of 6-azacadeguomycin” (1989), this text covers Incorporation for two molecules.

Common to all, as to assay type: functional
The species named for assay [1] is Homo sapiens. Put plainly: Mitogen-induced human lymphocyte proliferation measured by incorporation of [3H]thymidine in lymphocytes with Pokeweed mitogen at a concentration of 1/2500 ug with compound at 1 uM.
The species entered for assay [2] is Homo sapiens. Nature of the assay: Mitogen-induced human lymphocyte proliferation measured by incorporation of [3H]thymidine in lymphocytes with Pokeweed mitogen at a concentration of 1/2500 ug with compound at 400 uM.
The species named for assay [3] is Homo sapiens. Put plainly: Mitogen-induced human lymphocyte proliferation measured by incorporation of [3H]thymidine in lymphocytes with Pokeweed mitogen at a concentration of 1/2500 ug with compound at 50 uM.
For assay [4], the species on record is Homo sapiens. Nature of the assay: Mitogen-induced human lymphocyte proliferation measured by incorporation of [3H]thymidine in lymphocytes with Concanavalin A at a concentration of 0.25 ug with compound at 400 uM.
For assay [5], the species on record is Homo sapiens. Nature of the assay: Mitogen-induced human lymphocyte proliferation measured by incorporation of [3H]thymidine in lymphocytes with Pokeweed mitogen at a concentration of 1/2500 ug without compound.
The species entered for assay [6] is Homo sapiens. Put plainly: Mitogen-induced human lymphocyte proliferation measured by incorporation of [3H]thymidine in lymphocytes with Pokeweed mitogen at a concentration of 1/2500 ug with compound at 10 uM.
Assay [7] is filed under the species Homo sapiens. Nature of the assay: Mitogen-induced human lymphocyte proliferation measured by incorporation of [3H]thymidine in lymphocytes with Pokeweed mitogen at a concentration of 1/2500 ug with compound at 0.1 uM.
Assay [8] is filed under the species Homo sapiens. Put plainly: Mitogen-induced human lymphocyte proliferation measured by incorporation of [3H]thymidine in lymphocytes with Phytohemagglutininin at a concentration of 0.125 ug without compound.
Assay [9] is filed under the species Homo sapiens. Nature of the assay: Mitogen-induced human lymphocyte proliferation measured by incorporation of [3H]thymidine in lymphocytes with Concanavalin A (Con A) at a concentration of 0.25 ug with compound at 0.1 uM.
The species entered for assay [10] is Homo sapiens. Nature of the assay: Mitogen-induced human lymphocyte proliferation measured by incorporation of [3H]thymidine in lymphocytes with Concanavalin A (Con A) at a concentration of 0.25 ug with compound at 10 uM.
The species entered for assay [11] is Homo sapiens. Put plainly: Mitogen-induced human lymphocyte proliferation measured by incorporation of [3H]thymidine in lymphocytes with Concanavalin A (Con A) at a concentration of 0.25 ug with compound at 50 uM.
For assay [12], the species on record is Homo sapiens. Nature of the assay: Mitogen-induced human lymphocyte proliferation measured by incorporation of [3H]thymidine in lymphocytes with Concanavalin A (Con A) at a concentration of 0.25 ug with compound at 1 uM.
The species named for assay [13] is Homo sapiens. Nature of the assay: Mitogen-induced human lymphocyte proliferation measured by incorporation of [3H]thymidine in lymphocytes with Concanavalin A (Con A) at a concentration of 0.25 ug with out compound.
The species named for assay [14] is Homo sapiens. Nature of the assay: Mitogen-induced human lymphocyte proliferation measured by incorporation of [3H]thymidine in lymphocytes with Phytohemagglutininin at a concentration of 0.25 ug with compound at 10 uM.
The species entered for assay [15] is Homo sapiens. Nature of the assay: Mitogen-induced human lymphocyte proliferation measured by incorporation of [3H]thymidine in lymphocytes with Phytohemagglutininin at a concentration of 0.25 ug with compound at 1 uM.
The species entered for assay [16] is Homo sapiens. Put plainly: Mitogen-induced human lymphocyte proliferation measured by incorporation of [3H]thymidine in lymphocytes with Phytohemagglutininin at a concentration of 0.25 ug with compound at 400 uM.
The species named for assay [17] is Homo sapiens. Put plainly: Mitogen-induced human lymphocyte proliferation measured by incorporation of [3H]thymidine in lymphocytes with Phytohemagglutininin at a concentration of 0.25 ug with compound at 50 uM.
Assay [18] is filed under the species Homo sapiens. Put plainly: Mitogen-induced human lymphocyte proliferation measured by incorporation of [3H]-thymidine in lymphocytes with Phytohemagglutininin at a concentration of 0.25 ug with compound at 0.1 uM.
The species named for assay [19] is Homo sapiens. Nature of the assay: Mitogen-induced human lymphocyte proliferation measured by incorporation of [3H]thymidine in lymphocytes with Pokeweed mitogen at a concentration of 1/2500 ug with compound at 1 uM.
The species named for assay [20] is Homo sapiens. Nature of the assay: Mitogen-induced human lymphocyte proliferation measured by incorporation of [3H]thymidine in lymphocytes with Pokeweed mitogen at a concentration of 1/2500 ug with out compound.
The species named for assay [21] is Homo sapiens. Nature of the assay: Mitogen-induced human lymphocyte proliferation measured by incorporation of [3H]thymidine in lymphocytes with Phytohemagglutininin at a concentration of 0.125 ug with out compound.
The species named for assay [22] is Homo sapiens. Put plainly: Mitogen-induced human lymphocyte proliferation measured by incorporation of [3H]thymidine in lymphocytes with Phytohemagglutininin at a concentration of 0.125 ug with compound at 400 uM.
For assay [23], the species on record is Homo sapiens. Put plainly: Mitogen-induced human lymphocyte proliferation measured by incorporation of [3H]-thymidine in lymphocytes with Phytohemagglutininin at a concentration of 0.125 ug with compound at 50 uM.
The species entered for assay [24] is Homo sapiens. Put plainly: Mitogen-induced human lymphocyte proliferation measured by incorporation of [3H]thymidine in lymphocytes with Phytohemagglutininin at a concentration of 0.125 ug with compound at 0.1 uM.
The species named for assay [25] is Homo sapiens. Nature of the assay: Mitogen-induced human lymphocyte proliferation measured by incorporation of [3H]thymidine in lymphocytes with Phytohemagglutininin at a concentration of 0.125 ug with compound at 1 uM.
The species entered for assay [26] is Homo sapiens. Put plainly: Mitogen-induced human lymphocyte proliferation measured by incorporation of [3H]thymidine in lymphocytes with Concanavalin A (Con A) at a concentration of 0.25 microg with compound at 10 uM.
For assay [27], the species on record is Homo sapiens. Nature of the assay: Mitogen-induced human lymphocyte proliferation measured by incorporation of [3H]thymidine in lymphocytes with Phytohemagglutininin at a concentration of 0.125 ug with compound at 10 uM.

For the molecule `Nc1nc2c(c(C(=O)O)nn2C2O[C@H](CO)[C@@H](O)[C@H]2O)c(=O)[nH]1` (stereo partly specified), the Incorporation was found to be 39189 in the assay filed under Homo sapiens [1]; 34537 in the assay filed under Homo sapiens [2]; 34808 in the assay listed under Homo sapiens [3]; 22619 in the assay filed under Homo sapiens [4]; 35867 in the assay filed under Homo sapiens [5]; 36867 in the assay filed under Homo sapiens [6]. The Incorporation came to 35813 in the assay listed under Homo sapiens [7]; 28436 in the assay filed under Homo sapiens [8]; 20186 in the assay filed under Homo sapiens [9]; 27385 in the assay filed under Homo sapiens [10]; 22446 in the assay listed under Homo sapiens [11]; 21319 in the assay filed under Homo sapiens [12]. Moreover, the Incorporation in the assay filed under Homo sapiens [13] was 21143; in the assay filed under Homo sapiens [14] it was 32955; in the assay listed under Homo sapiens [15], 28393; in the assay filed under Homo sapiens [16], 29655; in the assay listed under Homo sapiens [17], 31662; in the assay filed under Homo sapiens [18] it was 25106.
Consider `NC(=O)[C@H](Cc1ccccc1)NC(=O)c1nn(C2O[C@H](CO)[C@@H](O)[C@H]2O)c2nc(N)[nH]c(=O)c12` (stereo partly specified), for which the Incorporation in the assay listed under Homo sapiens [19] turned out to be 41073; in the assay filed under Homo sapiens [2] it was 37204; in the assay listed under Homo sapiens [3], 40511; in the assay filed under Homo sapiens [20] it was 31047; in the assay listed under Homo sapiens [4], 30812; in the assay filed under Homo sapiens [6], 44634. In addition, the Incorporation in the assay listed under Homo sapiens [7] is 39180; in the assay filed under Homo sapiens [21] it was 38473; in the assay listed under Homo sapiens [22], 42771; in the assay listed under Homo sapiens [23] it was 53121; in the assay filed under Homo sapiens [9] it was 24317; in the assay listed under Homo sapiens [11] it was 27642. Further, the Incorporation in the assay listed under Homo sapiens [12] is 26510; in the assay listed under Homo sapiens [13], 27326; in the assay listed under Homo sapiens [24], 26149; in the assay filed under Homo sapiens [25], 35042; in the assay filed under Homo sapiens [26] it was 29989; in the assay filed under Homo sapiens [27] it was 54960.
